# Legend:
# [1] = molecular target: AP2-associated protein kinase 1 (Homo sapiens) (UniProt Q2M2I8); conditions: Compound concentration 1000.0 nM
# [2] = molecular target: RAC-gamma serine/threonine-protein kinase (Homo sapiens) (UniProt Q9Y243); conditions: Compound concentration 1000.0 nM
# [3] = molecular target: 5'-AMP-activated protein kinase catalytic subunit alpha-2 (Homo sapiens) (UniProt P54646); conditions: Compound concentration 1000.0 nM
# [4] = molecular target: Mitotic checkpoint serine/threonine-protein kinase BUB1 (Homo sapiens) (UniProt O43683); conditions: Compound concentration 1000.0 nM
# [5] = molecular target: Cyclin-dependent kinase 19 (Homo sapiens) (UniProt Q9BWU1); conditions: Compound concentration 1000.0 nM
# [6] = molecular target: Cyclin-dependent kinase 9 (Homo sapiens) (UniProt P50750); conditions: Compound concentration 1000.0 nM
# [7] = molecular target: Casein kinase I isoform alpha (Homo sapiens) (UniProt P48729); conditions: Compound concentration 1000.0 nM
# [8] = molecular target: Serine/threonine-protein kinase DCLK3 (Homo sapiens) (UniProt Q9C098); conditions: Compound concentration 1000.0 nM
# [9] = molecular target: Myotonin-protein kinase (Homo sapiens) (UniProt Q09013); conditions: Compound concentration 1000.0 nM
# [10] = tested on: Epidermal growth factor receptor (Homo sapiens), P00533 [L861Q]; conditions: Compound concentration 1000.0 nM
# [11] = molecular target: Mitogen-activated protein kinase 3 (Homo sapiens) (UniProt P27361); conditions: Compound concentration 1000.0 nM
# [12] = molecular target: Serine/threonine-protein kinase/endoribonuclease IRE1 (Homo sapiens) (UniProt O75460); conditions: Compound concentration 1000.0 nM
# [13] = molecular target: Fibroblast growth factor receptor 1 (Homo sapiens) (UniProt P11362); conditions: Compound concentration 1000.0 nM
# [14] = tested on: Receptor-type tyrosine-protein kinase FLT3 (Homo sapiens), P36888 [D835Y]; conditions: Compound concentration 1000.0 nM
# [15] = molecular target: Tyrosine-protein kinase FRK (Homo sapiens) (UniProt P42685); conditions: Compound concentration 1000.0 nM
# [16] = molecular target: Beta-adrenergic receptor kinase 1 (Homo sapiens) (UniProt P25098); conditions: Compound concentration 1000.0 nM
# [17] = molecular target: Mitogen-activated protein kinase kinase kinase kinase 1 (Homo sapiens) (UniProt Q92918); conditions: Compound concentration 1000.0 nM
# [18] = molecular target: Mitogen-activated protein kinase kinase kinase 1 (Homo sapiens) (UniProt Q13233); conditions: Compound concentration 1000.0 nM
# [19] = molecular target: Hepatocyte growth factor receptor (Homo sapiens) (UniProt P08581); conditions: Compound concentration 1000.0 nM
# [20] = molecular target: Dual specificity mitogen-activated protein kinase kinase 7 (Homo sapiens) (UniProt O14733); conditions: Compound concentration 1000.0 nM
# [21] = molecular target: Mitogen-activated protein kinase kinase kinase 11 (Homo sapiens) (UniProt Q16584); conditions: Compound concentration 1000.0 nM
# [22] = molecular target: Serine/threonine-protein kinase MRCK alpha (Homo sapiens) (UniProt Q5VT25); conditions: Compound concentration 1000.0 nM
# [23] = molecular target: Serine/threonine-protein kinase 24 (Homo sapiens) (UniProt Q9Y6E0); conditions: Compound concentration 1000.0 nM
# [24] = molecular target: Serine/threonine-protein kinase 26 (Homo sapiens) (UniProt Q9P289); conditions: Compound concentration 1000.0 nM
# [25] = molecular target: Myosin light chain kinase 2, skeletal/cardiac muscle (Homo sapiens) (UniProt Q9H1R3); conditions: Compound concentration 1000.0 nM
# [26] = molecular target: Serine/threonine-protein kinase Nek5 (Homo sapiens) (UniProt Q6P3R8); conditions: Compound concentration 1000.0 nM
# [27] = molecular target: Mitogen-activated protein kinase 12 (Homo sapiens) (UniProt P53778); conditions: Compound concentration 1000.0 nM
# [28] = molecular target: Cyclin-dependent kinase 17 (Homo sapiens) (UniProt Q00537); conditions: Compound concentration 1000.0 nM
# [29] = molecular target: Phosphatidylinositol 3-kinase C2 domain-containing subunit gamma (Homo sapiens) (UniProt O75747); conditions: Compound concentration 1000.0 nM
# [30] = molecular target: 1-phosphatidylinositol 3-phosphate 5-kinase (Homo sapiens) (UniProt Q9Y2I7); conditions: Compound concentration 1000.0 nM
# [31] = molecular target: Serine/threonine-protein kinase pim-1 (Homo sapiens) (UniProt P11309); conditions: Compound concentration 1000.0 nM
# [32] = molecular target: Serine/threonine-protein kinase PLK3 (Homo sapiens) (UniProt Q9H4B4); conditions: Compound concentration 1000.0 nM
# [33] = molecular target: Serine/threonine-protein kinase PLK4 (Homo sapiens) (UniProt O00444); conditions: Compound concentration 1000.0 nM
# [34] = molecular target: Serine/threonine-protein kinase RIO2 (Homo sapiens) (UniProt Q9BVS4); conditions: Compound concentration 1000.0 nM
# [35] = molecular target: Ribosomal protein S6 kinase alpha-4 (Homo sapiens) (UniProt O75676); conditions: Compound concentration 1000.0 nM
# [36] = molecular target: Ribosomal protein S6 kinase alpha-1 (Homo sapiens) (UniProt Q15418); conditions: Compound concentration 1000.0 nM
# [37] = molecular target: Ribosomal protein S6 kinase alpha-2 (Homo sapiens) (UniProt Q15349); conditions: Compound concentration 1000.0 nM
# [38] = molecular target: Serine/threonine-protein kinase SIK2 (Homo sapiens) (UniProt Q9H0K1); conditions: Compound concentration 1000.0 nM
# [39] = molecular target: Serine/threonine-protein kinase TAO3 (Homo sapiens) (UniProt Q9H2K8); conditions: Compound concentration 1000.0 nM
# [40] = molecular target: Serine/threonine-protein kinase 32B (Homo sapiens) (UniProt Q9NY57); conditions: Compound concentration 1000.0 nM
# [41] = molecular target: 5-hydroxytryptamine receptor 1B (Homo sapiens) (UniProt P28222); conditions: Compound concentration 10.0 uM
# [42] = molecular target: 5-hydroxytryptamine receptor 2C (Homo sapiens) (UniProt P28335); conditions: Compound concentration 10.0 uM
# [43] = molecular target: D(2) dopamine receptor (Homo sapiens) (UniProt P14416); conditions: Compound concentration 10.0 uM
# [44] = molecular target: Sodium-dependent serotonin transporter (Homo sapiens) (UniProt P31645); conditions: Compound concentration 10.0 uM
# [45] = molecular target: Alpha-1B adrenergic receptor (Homo sapiens) (UniProt P35368); conditions: Compound concentration 10.0 uM
# Myotonin-protein kinase (Homo sapiens), sequence (Q09013 whole entry): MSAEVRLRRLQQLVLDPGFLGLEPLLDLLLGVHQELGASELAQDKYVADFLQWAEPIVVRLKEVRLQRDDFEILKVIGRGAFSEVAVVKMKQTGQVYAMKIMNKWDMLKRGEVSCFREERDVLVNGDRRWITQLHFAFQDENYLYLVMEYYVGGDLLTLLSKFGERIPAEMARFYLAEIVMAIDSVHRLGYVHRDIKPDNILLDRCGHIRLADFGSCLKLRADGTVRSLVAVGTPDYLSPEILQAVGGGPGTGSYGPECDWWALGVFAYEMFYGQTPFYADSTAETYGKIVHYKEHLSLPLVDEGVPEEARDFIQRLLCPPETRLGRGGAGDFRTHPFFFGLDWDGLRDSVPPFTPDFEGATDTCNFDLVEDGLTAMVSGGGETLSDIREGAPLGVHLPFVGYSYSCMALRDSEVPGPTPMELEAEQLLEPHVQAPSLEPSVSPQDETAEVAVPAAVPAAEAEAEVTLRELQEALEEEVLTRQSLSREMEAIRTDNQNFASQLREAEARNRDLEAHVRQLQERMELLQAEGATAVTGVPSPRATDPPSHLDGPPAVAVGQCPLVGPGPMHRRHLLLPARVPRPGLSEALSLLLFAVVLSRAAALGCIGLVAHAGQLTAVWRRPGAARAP
# Ribosomal protein S6 kinase alpha-2 (Homo sapiens), sequence (Q15349 whole entry): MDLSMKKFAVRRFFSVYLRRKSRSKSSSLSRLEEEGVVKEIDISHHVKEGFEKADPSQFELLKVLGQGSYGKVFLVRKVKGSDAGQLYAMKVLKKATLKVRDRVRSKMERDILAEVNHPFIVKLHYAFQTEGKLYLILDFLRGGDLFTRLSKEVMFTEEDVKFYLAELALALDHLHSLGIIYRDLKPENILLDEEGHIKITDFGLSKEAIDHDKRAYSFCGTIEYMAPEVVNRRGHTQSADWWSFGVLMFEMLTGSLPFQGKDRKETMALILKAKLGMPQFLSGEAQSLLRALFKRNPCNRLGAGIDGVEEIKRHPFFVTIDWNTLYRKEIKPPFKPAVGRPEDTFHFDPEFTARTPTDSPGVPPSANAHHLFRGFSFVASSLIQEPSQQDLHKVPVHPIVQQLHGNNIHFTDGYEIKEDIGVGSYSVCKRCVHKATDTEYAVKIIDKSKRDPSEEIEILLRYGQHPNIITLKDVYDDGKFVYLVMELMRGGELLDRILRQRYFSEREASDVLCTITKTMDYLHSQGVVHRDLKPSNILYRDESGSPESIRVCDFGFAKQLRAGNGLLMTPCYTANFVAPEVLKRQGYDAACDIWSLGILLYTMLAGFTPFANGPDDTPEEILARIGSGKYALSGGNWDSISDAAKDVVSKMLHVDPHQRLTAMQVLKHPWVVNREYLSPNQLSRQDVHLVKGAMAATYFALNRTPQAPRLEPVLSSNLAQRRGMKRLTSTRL
# Beta-adrenergic receptor kinase 1 (Homo sapiens), sequence (P25098 whole entry): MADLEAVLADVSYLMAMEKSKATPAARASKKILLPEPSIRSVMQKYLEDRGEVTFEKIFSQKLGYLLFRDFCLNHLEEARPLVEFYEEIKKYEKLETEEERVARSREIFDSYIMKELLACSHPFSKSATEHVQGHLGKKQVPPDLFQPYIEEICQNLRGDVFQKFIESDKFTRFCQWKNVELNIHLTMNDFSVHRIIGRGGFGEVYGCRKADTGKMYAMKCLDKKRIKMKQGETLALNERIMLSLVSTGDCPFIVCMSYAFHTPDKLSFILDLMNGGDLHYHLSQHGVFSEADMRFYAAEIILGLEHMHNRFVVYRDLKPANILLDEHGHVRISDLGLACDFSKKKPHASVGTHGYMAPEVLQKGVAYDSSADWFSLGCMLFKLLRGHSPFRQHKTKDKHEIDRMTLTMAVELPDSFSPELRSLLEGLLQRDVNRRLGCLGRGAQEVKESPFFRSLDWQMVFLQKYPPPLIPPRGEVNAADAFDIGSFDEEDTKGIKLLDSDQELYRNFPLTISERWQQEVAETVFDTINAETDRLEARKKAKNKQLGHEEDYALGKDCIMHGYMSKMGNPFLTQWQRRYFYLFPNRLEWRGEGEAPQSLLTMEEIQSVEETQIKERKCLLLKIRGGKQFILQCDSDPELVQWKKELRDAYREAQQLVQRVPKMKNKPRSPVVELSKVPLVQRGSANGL
# 5-hydroxytryptamine receptor 1B (Homo sapiens), sequence (P28222 whole entry): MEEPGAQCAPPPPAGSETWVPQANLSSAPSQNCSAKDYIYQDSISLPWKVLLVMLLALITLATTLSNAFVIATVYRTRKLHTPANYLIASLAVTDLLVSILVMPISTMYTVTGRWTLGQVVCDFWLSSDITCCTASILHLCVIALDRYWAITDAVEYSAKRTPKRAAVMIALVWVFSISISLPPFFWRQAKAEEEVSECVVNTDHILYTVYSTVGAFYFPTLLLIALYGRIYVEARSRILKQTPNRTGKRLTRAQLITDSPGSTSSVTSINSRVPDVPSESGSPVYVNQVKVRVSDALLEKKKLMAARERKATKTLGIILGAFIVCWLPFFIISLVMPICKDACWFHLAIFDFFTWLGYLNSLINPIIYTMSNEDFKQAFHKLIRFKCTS
# Dual specificity mitogen-activated protein kinase kinase 7 (Homo sapiens), sequence (O14733 whole entry): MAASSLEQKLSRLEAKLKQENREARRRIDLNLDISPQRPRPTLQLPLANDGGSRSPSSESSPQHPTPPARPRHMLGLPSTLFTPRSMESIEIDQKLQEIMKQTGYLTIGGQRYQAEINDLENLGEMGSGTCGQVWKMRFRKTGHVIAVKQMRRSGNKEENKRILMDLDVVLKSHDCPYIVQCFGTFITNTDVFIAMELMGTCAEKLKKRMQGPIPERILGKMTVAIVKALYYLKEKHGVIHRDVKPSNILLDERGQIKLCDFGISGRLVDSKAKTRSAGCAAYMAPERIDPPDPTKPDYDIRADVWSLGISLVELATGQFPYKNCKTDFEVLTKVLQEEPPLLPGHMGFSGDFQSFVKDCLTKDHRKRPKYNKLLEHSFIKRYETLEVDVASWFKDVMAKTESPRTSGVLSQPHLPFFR
# Serine/threonine-protein kinase Nek5 (Homo sapiens), sequence (Q6P3R8 whole entry): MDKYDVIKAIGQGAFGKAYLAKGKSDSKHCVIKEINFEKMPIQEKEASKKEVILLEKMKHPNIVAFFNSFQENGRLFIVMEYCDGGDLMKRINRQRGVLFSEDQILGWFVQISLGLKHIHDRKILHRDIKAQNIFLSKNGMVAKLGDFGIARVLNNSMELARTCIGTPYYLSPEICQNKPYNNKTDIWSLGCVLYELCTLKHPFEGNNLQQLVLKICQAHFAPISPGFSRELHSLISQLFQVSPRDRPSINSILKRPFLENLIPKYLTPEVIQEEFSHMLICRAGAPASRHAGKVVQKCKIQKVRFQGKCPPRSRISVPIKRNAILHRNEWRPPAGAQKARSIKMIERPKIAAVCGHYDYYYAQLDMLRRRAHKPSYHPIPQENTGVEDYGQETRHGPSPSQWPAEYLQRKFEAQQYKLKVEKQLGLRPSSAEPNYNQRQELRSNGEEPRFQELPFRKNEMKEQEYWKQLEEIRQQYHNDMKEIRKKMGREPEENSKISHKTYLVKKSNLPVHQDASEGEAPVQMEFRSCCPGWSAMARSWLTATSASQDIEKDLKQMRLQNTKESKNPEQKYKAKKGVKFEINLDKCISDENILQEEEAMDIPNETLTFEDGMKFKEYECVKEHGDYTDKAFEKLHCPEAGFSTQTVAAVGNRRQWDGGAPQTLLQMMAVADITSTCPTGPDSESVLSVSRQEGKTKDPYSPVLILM
# Serine/threonine-protein kinase/endoribonuclease IRE1 (Homo sapiens), sequence (O75460 19-977 limits assumed): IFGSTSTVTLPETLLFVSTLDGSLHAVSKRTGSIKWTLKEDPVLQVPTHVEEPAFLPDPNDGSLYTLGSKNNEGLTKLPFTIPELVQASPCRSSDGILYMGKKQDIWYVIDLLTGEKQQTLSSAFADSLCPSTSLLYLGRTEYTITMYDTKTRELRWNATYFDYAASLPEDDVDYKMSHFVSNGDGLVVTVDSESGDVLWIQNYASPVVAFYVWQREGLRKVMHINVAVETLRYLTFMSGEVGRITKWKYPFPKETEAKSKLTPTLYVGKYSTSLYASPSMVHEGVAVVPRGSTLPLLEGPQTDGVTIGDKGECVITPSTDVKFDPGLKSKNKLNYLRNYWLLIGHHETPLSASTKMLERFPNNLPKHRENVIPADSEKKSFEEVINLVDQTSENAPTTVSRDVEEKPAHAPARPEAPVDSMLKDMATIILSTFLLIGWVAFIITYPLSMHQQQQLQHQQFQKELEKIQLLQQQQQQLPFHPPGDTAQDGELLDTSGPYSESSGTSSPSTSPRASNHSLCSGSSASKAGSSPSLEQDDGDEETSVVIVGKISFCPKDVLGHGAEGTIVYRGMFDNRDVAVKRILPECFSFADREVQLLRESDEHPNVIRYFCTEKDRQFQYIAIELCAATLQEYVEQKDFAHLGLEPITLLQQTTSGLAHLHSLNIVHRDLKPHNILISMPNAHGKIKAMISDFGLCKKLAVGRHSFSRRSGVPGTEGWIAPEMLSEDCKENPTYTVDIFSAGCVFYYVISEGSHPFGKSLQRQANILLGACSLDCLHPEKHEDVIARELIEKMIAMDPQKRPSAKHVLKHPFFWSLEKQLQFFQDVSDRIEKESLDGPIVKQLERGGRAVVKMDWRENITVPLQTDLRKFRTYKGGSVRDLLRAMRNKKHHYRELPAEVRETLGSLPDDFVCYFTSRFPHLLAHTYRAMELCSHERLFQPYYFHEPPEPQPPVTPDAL
# Cyclin-dependent kinase 9 (Homo sapiens), sequence (P50750 whole entry, canonical isoform): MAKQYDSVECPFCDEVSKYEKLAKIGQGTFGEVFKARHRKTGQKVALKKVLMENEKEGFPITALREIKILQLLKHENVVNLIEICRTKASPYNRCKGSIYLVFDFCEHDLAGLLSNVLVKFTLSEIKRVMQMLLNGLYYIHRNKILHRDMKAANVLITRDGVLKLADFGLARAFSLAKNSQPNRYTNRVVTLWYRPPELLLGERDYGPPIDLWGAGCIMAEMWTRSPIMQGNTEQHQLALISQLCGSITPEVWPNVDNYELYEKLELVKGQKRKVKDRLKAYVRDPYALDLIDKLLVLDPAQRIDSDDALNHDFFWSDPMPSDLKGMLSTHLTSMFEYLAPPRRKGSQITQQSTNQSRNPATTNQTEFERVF
compound,measurement,setting,value
Cc1nc(N2CC[C@@H](O)C2)ncc1-c1cc(C(F)(F)F)cc2[nH]ncc12 [TP-004],residual activity,[1],100%
same,residual activity,[2],77%
same,residual activity,[3],100%
same,residual activity,[4],75%
same,residual activity,[5],100%
same,residual activity,[6],87%
same,residual activity,[7],96%
same,residual activity,[8],96%
same,residual activity,[9],80%
same,residual activity,[10],100%
same,residual activity,[11],100%
same,residual activity,[12],86%
same,residual activity,[13],90%
same,residual activity,[14],80%
same,residual activity,[15],98%
same,residual activity,[16],42%
same,residual activity,[17],100%
same,residual activity,[18],60%
same,residual activity,[19],100%
same,residual activity,[20],64%
same,residual activity,[21],100%
same,residual activity,[22],100%
same,residual activity,[23],100%
same,residual activity,[24],59%
same,residual activity,[25],100%
same,residual activity,[26],100%
same,residual activity,[27],100%
same,residual activity,[28],91%
same,residual activity,[29],90%
same,residual activity,[30],88%
same,residual activity,[31],100%
same,residual activity,[32],78%
same,residual activity,[33],93%
same,residual activity,[34],100%
same,residual activity,[35],68%
same,residual activity,[36],91%
same,residual activity,[37],100%
same,residual activity,[38],100%
same,residual activity,[39],82%
same,residual activity,[40],100%
same,inhibition,[41],22.3%
same,inhibition,[42],-0.722%
same,inhibition,[43],12.6%
same,inhibition,[44],-6.93%
same,inhibition,[45],15.9%
